# The source made the active and inactive calls. The calls are words filed in the database; no cut-off is given here.
# What was measured:
# Mus musculus [1] = species on record: Mus musculus; assay: Binding affinity to beta amyloid plaques in brain sections of TgC57 transgenic mouse transfected with APP and PS1 double mutant after 10 mins using thioflavin-S stain; type: tissue-based
# [2] = Displacement of [125I]TZDM from amyloid beta (1 to 40) aggregates after 2 hrs
# [3] = Displacement of [125I]TZDM from amyloid beta (1 to 42) aggregates after 2 hrs
# Heart [4] = assay: Biodistribution in heart of Kunming mouse at 1 uCi, iv after 2 mins by gamma counting; type: ADME, organism-based; conditions: in vivo
# Brain [5] = assay: Biodistribution in brain of Kunming mouse at 1 uCi, iv after 2 mins by gamma counting; type: ADME, organism-based; conditions: in vivo
# [6] = Partition coefficient, log D in n-octanol/0.05 M phosphate buffer at pH 7.4; type: physicochemical
# Muscle tissue [7] = assay: Biodistribution in muscle of Kunming mouse at 1 uCi, iv after 240 mins by gamma counting; type: ADME, organism-based; conditions: in vivo, 4 h
# Spleen [8] = assay: Biodistribution in spleen of Kunming mouse at 1 uCi, iv after 120 mins by gamma counting; type: ADME, organism-based; conditions: in vivo, 2 h
# Muscle tissue [9] = assay: Biodistribution in muscle of Kunming mouse at 1 uCi, iv after 60 mins by gamma counting; type: ADME, organism-based; conditions: in vivo, 1 h
# Lung [10] = assay: Biodistribution in lung of Kunming mouse at 1 uCi, iv after 240 mins by gamma counting; type: ADME, organism-based; conditions: in vivo, 4 h
# Stomach [11] = assay: Biodistribution in stomach of Kunming mouse at 1 uCi, iv after 120 mins by gamma counting measured per organ; type: ADME, organism-based; conditions: in vivo, 2 h
# Kidney [12] = assay: Biodistribution in kidney of Kunming mouse at 1 uCi, iv after 240 mins by gamma counting; type: ADME, organism-based; conditions: in vivo, 4 h
# Blood [13] = assay: Biodistribution in blood of Kunming mouse at 1 uCi, iv after 2 mins by gamma counting; type: ADME, organism-based; conditions: in vivo
# Blood [14] = assay: Biodistribution in blood of Kunming mouse at 1 uCi, iv after 30 mins by gamma counting; type: ADME, organism-based; conditions: in vivo, 0.5 h
# Kidney [15] = assay: Biodistribution in kidney of Kunming mouse at 1 uCi, iv after 60 mins by gamma counting; type: ADME, organism-based; conditions: in vivo, 1 h
# Lung [16] = assay: Biodistribution in lung of Kunming mouse at 1 uCi, iv after 120 mins by gamma counting; type: ADME, organism-based; conditions: in vivo, 2 h
# Spleen [17] = assay: Biodistribution in spleen of Kunming mouse at 1 uCi, iv after 240 mins by gamma counting; type: ADME, organism-based; conditions: in vivo, 4 h
# Stomach [18] = assay: Biodistribution in stomach of Kunming mouse at 1 uCi, iv after 2 mins by gamma counting measured per organ; type: ADME, organism-based; conditions: in vivo
# Lung [19] = assay: Biodistribution in lung of Kunming mouse at 1 uCi, iv after 60 mins by gamma counting; type: ADME, organism-based; conditions: in vivo, 1 h
# Spleen [20] = assay: Biodistribution in spleen of Kunming mouse at 1 uCi, iv after 2 mins by gamma counting; type: ADME, organism-based; conditions: in vivo
# Heart [21] = assay: Biodistribution in heart of Kunming mouse at 1 uCi, iv after 120 mins by gamma counting; type: ADME, organism-based; conditions: in vivo, 2 h
# Brain [22] = assay: Biodistribution in brain of Kunming mouse at 1 uCi, iv after 30 mins by gamma counting; type: ADME, organism-based; conditions: in vivo, 0.5 h
# Spleen [23] = assay: Biodistribution in spleen of Kunming mouse at 1 uCi, iv after 60 mins by gamma counting; type: ADME, organism-based; conditions: in vivo, 1 h
# Brain [24] = assay: Biodistribution in brain of Kunming mouse at 1 uCi, iv after 60 mins by gamma counting; type: ADME, organism-based; conditions: in vivo, 1 h
# Muscle tissue [25] = assay: Biodistribution in muscle of Kunming mouse at 1 uCi, iv after 30 mins by gamma counting; type: ADME, organism-based; conditions: in vivo, 0.5 h
# Stomach [26] = assay: Biodistribution in stomach of Kunming mouse at 1 uCi, iv after 30 mins by gamma counting measured per organ; type: ADME, organism-based; conditions: in vivo, 0.5 h
# Liver [27] = assay: Biodistribution in liver of Kunming mouse at 1 uCi, iv after 30 mins by gamma counting; type: ADME, organism-based; conditions: in vivo, 0.5 h
# Liver [28] = assay: Biodistribution in liver of Kunming mouse at 1 uCi, iv after 60 mins by gamma counting; type: ADME, organism-based; conditions: in vivo, 1 h
# Muscle tissue [29] = assay: Biodistribution in muscle of Kunming mouse at 1 uCi, iv after 2 mins by gamma counting; type: ADME, organism-based; conditions: in vivo
# Heart [30] = assay: Biodistribution in heart of Kunming mouse at 1 uCi, iv after 60 mins by gamma counting; type: ADME, organism-based; conditions: in vivo, 1 h
# Kidney [31] = assay: Biodistribution in kidney of Kunming mouse at 1 uCi, iv after 120 mins by gamma counting; type: ADME, organism-based; conditions: in vivo, 2 h
# Spleen [32] = assay: Biodistribution in spleen of Kunming mouse at 1 uCi, iv after 30 mins by gamma counting; type: ADME, organism-based; conditions: in vivo, 0.5 h
# Lung [33] = assay: Biodistribution in lung of Kunming mouse at 1 uCi, iv after 2 mins by gamma counting; type: ADME, organism-based; conditions: in vivo
# Plasma = assay: Metabolic stability in mouse plasma assessed as deiodination after 2 hrs by HPLC analysis; type: ADME, cell-free
# Heart [34] = assay: Biodistribution in heart of Kunming mouse at 1 uCi, iv after 30 mins by gamma counting; type: ADME, organism-based; conditions: in vivo, 0.5 h
# Liver [35] = assay: Biodistribution in liver of Kunming mouse at 1 uCi, iv after 240 mins by gamma counting; type: ADME, organism-based; conditions: in vivo, 4 h
# Kidney [36] = assay: Biodistribution in kidney of Kunming mouse at 1 uCi, iv after 2 mins by gamma counting; type: ADME, organism-based; conditions: in vivo
# Blood [37] = assay: Biodistribution in blood of Kunming mouse at 1 uCi, iv after 240 mins by gamma counting; type: ADME, organism-based; conditions: in vivo, 4 h
# Kidney [38] = assay: Biodistribution in kidney of Kunming mouse at 1 uCi, iv after 30 mins by gamma counting; type: ADME, organism-based; conditions: in vivo, 0.5 h
# Heart [39] = assay: Biodistribution in heart of Kunming mouse at 1 uCi, iv after 240 mins by gamma counting; type: ADME, organism-based; conditions: in vivo, 4 h
# Blood [40] = assay: Biodistribution in blood of Kunming mouse at 1 uCi, iv after 120 mins by gamma counting; type: ADME, organism-based; conditions: in vivo, 2 h
# Muscle tissue [41] = assay: Biodistribution in muscle of Kunming mouse at 1 uCi, iv after 120 mins by gamma counting; type: ADME, organism-based; conditions: in vivo, 2 h
# Liver [42] = assay: Biodistribution in liver of Kunming mouse at 1 uCi, iv after 120 mins by gamma counting; type: ADME, organism-based; conditions: in vivo, 2 h
# Stomach [43] = assay: Biodistribution in stomach of Kunming mouse at 1 uCi, iv after 60 mins by gamma counting measured per organ; type: ADME, organism-based; conditions: in vivo, 1 h
# Brain [44] = assay: Biodistribution in brain of Kunming mouse at 1 uCi, iv after 120 mins by gamma counting; type: ADME, organism-based; conditions: in vivo, 2 h
# Stomach [45] = assay: Biodistribution in stomach of Kunming mouse at 1 uCi, iv after 240 mins by gamma counting measured per organ; type: ADME, organism-based; conditions: in vivo, 4 h
# Brain [46] = assay: Biodistribution in brain of Kunming mouse at 1 uCi, iv after 240 mins by gamma counting; type: ADME, organism-based; conditions: in vivo, 4 h
# Liver [47] = assay: Biodistribution in liver of Kunming mouse at 1 uCi, iv after 2 mins by gamma counting; type: ADME, organism-based; conditions: in vivo
# Blood [48] = assay: Biodistribution in blood of Kunming mouse at 1 uCi, iv after 60 mins by gamma counting; type: ADME, organism-based; conditions: in vivo, 1 h
# Lung [49] = assay: Biodistribution in lung of Kunming mouse at 1 uCi, iv after 30 mins by gamma counting; type: ADME, organism-based; conditions: in vivo, 0.5 h
# Mus musculus [50] = species on record: Mus musculus; assay: Binding affinity to beta amyloid plaques in brain sections of TgC57 transgenic mouse transfected with APP and PS1 double mutant after 30 mins by autoradiography; type: tissue-based; conditions: tested as the 125I-labelled form
# Mus musculus [51] = species on record: Mus musculus; assay: Binding affinity to beta amyloid plaques in brain sections of TgC57 transgenic mouse transfected with APP and PS1 double mutant after 30 mins by autoradiography in the presence of thioflavin-T; type: tissue-based; conditions: tested as the 125I-labelled form
smiles,measurement,setting,value
c1csc(-c2ccc(-c3nc4ccccc4s3)s2)c1,Activity,Mus musculus [1],Active
same,Ki,[2],3.94 nM
same,Ki,[3],4.64 nM
COc1ccc2nc(-c3ccc(-c4cccs4)s3)sc2c1,Activity,Mus musculus [1],Active
same,Ki,[2],0.6 nM
same,Ki,[3],2.09 nM
Brc1ccc2nc(-c3ccc(-c4cccs4)s3)sc2c1,Activity,Mus musculus [1],Active
same,Ki,[2],0.57 nM
same,Ki,[3],0.6 nM
COc1ccc2nc(-c3ccc(-c4ccc([125I])s4)s3)sc2c1,Drug uptake,Heart [4],16.13 % ID/g
same,Drug uptake,Brain [5],0.87 % ID/g
same,logD,[6],3.27
same,Drug uptake,Muscle tissue [7],1.95 % ID/g
same,Drug uptake,Spleen [8],4.92 % ID/g
same,Drug uptake,Muscle tissue [9],3.56 % ID/g
same,Drug uptake,Lung [10],6.12 % ID/g
same,Drug uptake,Stomach [11],33.95 %ID
same,Drug uptake,Kidney [12],4.53 % ID/g
same,Drug uptake,Blood [13],23.34 % ID/g
same,Drug uptake,Blood [14],6.55 % ID/g
same,Drug uptake,Kidney [15],6.28 % ID/g
same,Drug uptake,Lung [16],7.7 % ID/g
same,Drug uptake,Spleen [17],4.49 % ID/g
same,Drug uptake,Stomach [18],1.31 %ID
same,Drug uptake,Lung [19],8.64 % ID/g
same,Drug uptake,Spleen [20],19.04 % ID/g
same,Drug uptake,Heart [21],3.48 % ID/g
same,Drug uptake,Brain [22],0.64 % ID/g
same,Drug uptake,Spleen [23],6.24 % ID/g
same,Drug uptake,Brain [24],0.77 % ID/g
same,Drug uptake,Muscle tissue [25],3.42 % ID/g
same,Drug uptake,Stomach [26],15.84 %ID
same,Drug uptake,Liver [27],6.98 % ID/g
same,Drug uptake,Liver [28],5.76 % ID/g
same,Drug uptake,Muscle tissue [29],2.73 % ID/g
same,Drug uptake,Heart [30],4.74 % ID/g
same,Drug uptake,Kidney [31],5.67 % ID/g
same,Drug uptake,Spleen [32],7.11 % ID/g
same,Drug uptake,Lung [33],43.6 % ID/g
same,Stability,Plasma,Stable
same,Drug uptake,Heart [34],5.94 % ID/g
same,Drug uptake,Liver [35],3.23 % ID/g
same,Drug uptake,Kidney [36],14.3 % ID/g
same,Drug uptake,Blood [37],5.05 % ID/g
same,Drug uptake,Kidney [38],6.49 % ID/g
same,Drug uptake,Heart [39],2.5 % ID/g
same,Drug uptake,Blood [40],6.62 % ID/g
same,Drug uptake,Muscle tissue [41],2.46 % ID/g
same,Drug uptake,Liver [42],4.33 % ID/g
same,Drug uptake,Stomach [43],20.24 %ID
same,Drug uptake,Brain [44],0.68 % ID/g
same,Drug uptake,Stomach [45],19.37 %ID
same,Drug uptake,Brain [46],0.53 % ID/g
same,Drug uptake,Liver [47],35.25 % ID/g
same,Drug uptake,Blood [48],6.58 % ID/g
same,Drug uptake,Lung [49],10.28 % ID/g
Ic1ccc2nc(-c3ccc(-c4cccs4)s3)sc2c1,Activity,Mus musculus [1],Active
same,Ki,[2],0.31 nM
same,Activity,Mus musculus [50],Active
same,Activity,Mus musculus [51],inactive
same,Ki,[3],0.25 nM
COc1ccc2nc(-c3ccc(-c4ccc(Br)s4)s3)sc2c1,Activity,Mus musculus [1],Active
same,Ki,[2],1.28 nM
same,Ki,[3],0.21 nM
COc1ccc2nc(-c3ccc(-c4ccc(I)s4)s3)sc2c1,Activity,Mus musculus [1],Active
same,Ki,[2],0.61 nM
same,Activity,Mus musculus [50],Active
same,Activity,Mus musculus [51],inactive
same,Ki,[3],0.11 nM
